Results taken from patent publication US12187709B2 (Genentech, Inc., priority 2021, dated 2025).

Experiments:
Cbl-b = Cbl-b (Homo sapiens (Human), UniProt Q13191); test: Cbl-b LCK Ub TR-FRET assay (Cbl-b Lck HTRF); assay type: biochemical; conditions: for IC50: Cbl-b LCK Ub TR-FRET; for fold-selectivity (Cbl-b over C-cbl): ratio C-cbl Lck HTRF IC50 / Cbl-b Lck HTRF IC50
Outline: (§1)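 Detection reagents added, brief spin, 20 min RT. IC50 fit normalized to no-LCK (low) and DMSO (high) controls.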

c-Cbl = c-Cbl (Homo sapiens (Human), UniProt P22681); test: C-Cbl LCK Ub TR-FRET assay (C-cbl Lck HTRF); assay type: biochemical
Outline: as §1

[1] = target: Human Cbl-b (residues 40-426) (Homo sapiens (Human), UniProt Q13191); test: Cbl-b SPR assay; assay type: binding; conditions: for Fold of selectivity: C-cbl SPR Kd vs Cbl-b SPR Kd; for Kd: SPR, 20° C.
Outline: (§2)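 Binding was measured by SPR and fitted to a 1:1 model from multi-cycle kinetics with double referencing, 6 concentrations in 2-fold dilution. Alternatively, single-cycle titrations up to 500 nM (120 s contact) were fitted with kd fixed from a single-exponential fit of chaser-measured % compound bound versus time.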

c-Cbl (residues 47-435) = c-Cbl (residues 47-435) (Homo sapiens (Human), UniProt P22681); test: c-Cbl SPR assay; assay type: binding; conditions: 20° C.
Outline: as §2

Chain of c-Cbl (P22681 47-435): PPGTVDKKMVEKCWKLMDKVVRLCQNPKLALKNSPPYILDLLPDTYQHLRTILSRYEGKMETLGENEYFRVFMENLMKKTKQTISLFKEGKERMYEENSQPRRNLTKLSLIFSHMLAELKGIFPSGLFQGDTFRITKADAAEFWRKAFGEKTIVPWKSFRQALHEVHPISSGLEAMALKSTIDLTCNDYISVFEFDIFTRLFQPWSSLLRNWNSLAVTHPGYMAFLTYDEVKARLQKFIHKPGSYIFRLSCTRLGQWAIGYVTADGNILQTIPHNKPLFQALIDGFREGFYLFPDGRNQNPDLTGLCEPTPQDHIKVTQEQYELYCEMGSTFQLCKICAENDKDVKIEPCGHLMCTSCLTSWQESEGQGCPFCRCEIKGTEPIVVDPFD
Chain of c-Cbl (residues 47-435) (P22681 47-435): as above
Chain of Human Cbl-b (residues 40-426) (Q13191 40-426): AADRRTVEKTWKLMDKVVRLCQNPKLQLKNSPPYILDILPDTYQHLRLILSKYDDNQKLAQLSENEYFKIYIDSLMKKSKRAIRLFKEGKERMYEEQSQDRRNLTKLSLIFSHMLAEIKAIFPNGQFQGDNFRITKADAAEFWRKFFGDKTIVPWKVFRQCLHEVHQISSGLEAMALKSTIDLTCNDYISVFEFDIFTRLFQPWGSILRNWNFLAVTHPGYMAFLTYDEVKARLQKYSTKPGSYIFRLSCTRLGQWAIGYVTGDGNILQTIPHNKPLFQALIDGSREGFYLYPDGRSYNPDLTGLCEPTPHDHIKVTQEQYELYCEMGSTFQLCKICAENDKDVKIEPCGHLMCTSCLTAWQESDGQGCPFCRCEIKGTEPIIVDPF
Chain of Cbl-b (Q13191 40-426): as above

| SMILES | IC50 (Cbl-b) [nM] | fold-selectivity (Cbl-b over C-cbl) (Cbl-b) | IC50 (c-Cbl) [nM] | Fold of selectivity [1] [×] | Kd [1] [nM] | Kd (c-Cbl (residues 47-435)) [nM] |
| --- | --- | --- | --- | --- | --- | --- |
| CC(C)[C@H]1CN(C)CCN1Cc1cc2c(c(C(F)(F)F)c1)CN(c1cc([C@]3(c4nncn4C)C[C@@H](C)C3)cc(NC3CCCC3)n1)C2=O [Compound 74, 2-(6-(cyclopentylamino)-4-((1S,3R)-3-methyl-1-(4-methyl-4H-1,2,4-triazol-3-yl)cyclobutyl)pyridin-2-yl)-6-(((S)-2-isopropyl-4-methylpiperazin-1-yl)methyl)-4-(trifluoromethyl)isoindolin-1-one] | 15 | (1.5x) | 23 | 8.7 | 8.3 | 72 |
| Cn1cnnc1[C@]1(c2cccc(N3Cc4c(cc(CNC5(C)CCC5)cc4C(F)(F)F)C3=O)c2)C[C@@H](CC#N)C1 [Compound 89, 2-((1r,3r)-3-(4-methyl-4H-1,2,4-triazol-3-yl)-3-(3-(6-(((1-methylcyclobutyl)amino)methyl)-1-oxo-4-(trifluoromethyl)isoindolin-2-yl)phenyl)-cyclobutyl)acetonitrile] | 41 | 2.4x | 98 | 6.6 | 0.6 | 4 |
| Cn1cnnc1C1(c2cccc(N3Cc4c(cc(CNC5(C)CCC5)cc4C(F)(F)F)C3=O)c2)CC2(CC(F)(F)C2)C1 [Compound 94, 2-(3-(6,6-difluoro-2-(4-methyl-4H-1,2,4-triazol-3-yl)spiro[3.3]heptan-2-yl)phenyl)-6-(((1-methylcyclobutyl)amino)methyl)-4-(trifluoromethyl)isoindolin-1-one] | 21 | 6.0x | 120 | 19 | 7.4 | 140 |
| Cn1cnnc1C1(c2cccc(N3Cc4c(cc(CNC5(C)CCC5)cc4C(F)(F)F)C3=O)c2)CC2(CN(CC(F)(F)F)C2)C1 [Compound 96, 2-(3-(6-(4-methyl-4H-1,2,4-triazol-3-yl)-2-(2,2,2-trifluoroethyl)-2-azaspiro[3.3]heptan-6-yl)phenyl)-6-(((1-methylcyclobutyl)amino)methyl)-4-(trifluoromethyl)-isoindolin-1-one] | 4500 | 3.7x | 16000 | 4.1 | 4300 | 18000 |
| Cn1cnnc1[C@]1(c2cccc(N3Cc4c(cc(CNC5(C)CCC5)cc4C(F)(F)F)C3=O)c2)C[C@H](CO)C1.O=CO [Compound 99, 2-(3-((1s,3s)-3-(hydroxymethyl)-1-(4-methyl-4H-1,2,4-triazol-3-yl)cyclobutyl)phenyl)-6-(((1-methylcyclobutyl)amino)methyl)-4-(trifluoromethyl)isoindolin-1-one formate] | 86 | 3.7x | 320 | 4.8 | 48 | 230 |
| Cn1cnnc1[C@]1(c2cccc(N3Cc4c(cc(CNC5(C)CCC5)cc4C(F)(F)F)C3=O)c2)C[C@@H](CO)C1.O=CO [Compound 100, 2-(3-((1r,3r)-3-(hydroxymethyl)-1-(4-methyl-4H-1,2,4-triazol-3-yl)cyclobutyl)phenyl)-6-(((1-methylcyclobutyl)amino)methyl)-4-(trifluoromethyl)isoindolin-1-one formate] | 25 | 3.5x | 86 | 12 | 5.8 | 72 |
| Cn1cnnc1[C@]1(c2cccc(N3Cc4c(cc(CNC5(C)CCC5)cc4C(F)(F)F)C3=O)c2)C[C@]2(CCO2)C1 [Compound 108, 2-(3-((4r,6r)-6-(4-methyl-4H-1,2,4-triazol-3-yl)-1-oxaspiro[3.3]heptan-6-yl)phenyl)-6-(((1-methylcyclobutyl)amino)methyl)-4-(trifluoromethyl)isoindolin-1-one] | 17 | 9.2x | 160 | 21 | 5.2 | 120 |
| Cn1cnnc1[C@]1(c2cccc(N3Cc4c(cc(CNC5(C)CCC5)cc4C(F)(F)F)C3=O)c2)C[C@@]2(CCO2)C1 [Compound 109, 2-(3-((4s,6s)-6-(4-methyl-4H-1,2,4-triazol-3-yl)-1-oxaspiro[3.3]heptan-6-yl)phenyl)-6-(((1-methylcyclobutyl)amino)methyl)-4-(trifluoromethyl)isoindolin-1-one] | 47 | 4.6x | 220 | 7.0 | 21 | 140 |

The next compounds have a lower IC50 (Cbl-b) than those just listed; values first:

| IC50 (Cbl-b) [nM] | fold-selectivity (Cbl-b over C-cbl) (Cbl-b) | IC50 (c-Cbl) [nM] | Fold of selectivity [1] [×] | Kd [1] [nM] | Kd (c-Cbl (residues 47-435)) [nM] | SMILES |
| --- | --- | --- | --- | --- | --- | --- |
| 12 | 1.0x | 12 | 4.1 | 21 | 87 | Cn1cnnc1[C@]1(c2cccc(N3Cc4c(cc(CNC5(C)CCC5)cc4C(F)(F)F)C3=O)c2)C[C@H](CC#N)C1 [Compound 88, 2-((1s,3s)-3-(4-methyl-4H-1,2,4-triazol-3-yl)-3-(3-(6-(((1-methylcyclobutyl)amino)methyl)-1-oxo-4-(trifluoromethyl)isoindolin-2-yl)phenyl)-cyclobutyl)acetonitrile] |
| 7.8 | 0.83x | 6.6 | 2.0 | 0.2 | 0.4 | CCNc1cc(N2Cc3c(cc(CNC4(C)CCC4)cc3C(F)(F)F)C2=O)cc([C@]2(c3nncn3C)C[C@H](C)C2)c1 [Compound 90, 2-(3-(ethylamino)-5-((1r,3r)-3-methyl-1-(4-methyl-4H-1,2,4-triazol-3-yl)cyclobutyl)phenyl)-6-(((1-methylcyclobutyl)amino)methyl)-4-(trifluoromethyl)isoindolin-1-one] |
| 10 | 0.8x | 8 | 3.0 | 0.3 | 0.9 | CCNc1cc(N2Cc3c(cc(CNC4(C)CCC4)cc3C(F)(F)F)C2=O)cc([C@]2(c3nncn3C)C[C@@H](C)C2)c1 [Compound 91, 2-(3-(ethylamino)-5-((1s,3s)-3-methyl-1-(4-methyl-4H-1,2,4-triazol-3-yl)cyclobutyl)phenyl)-6-(((1-methylcyclobutyl)amino)methyl)-4-(trifluoromethyl)-isoindolin-1-one] |
| 12 | 1.7x | 21 | 7.5 | 2 | 15 | Cn1cnnc1[C@]1(c2cccc(N3Cc4c(cc(CNC5(C)CCC5)cc4C(F)(F)F)C3=O)c2)C[C@H](F)C1 [Compound 95, 2-(3-((1s,3s)-3-fluoro-1-(4-methyl-4H-1,2,4-triazol-3-yl)cyclobutyl)-phenyl)-6-(((1-methylcyclobutyl)amino)methyl)-4-(trifluoromethyl)isoindolin-1-one] |
| 9.1 | 1.1x | 9.8 | 4.9 | 0.85 | 4.2 | Cn1cnnc1[C@]1(c2cccc(N3Cc4c(cc(CNC5(C)CCC5)cc4C(F)(F)F)C3=O)c2)C[C@@H](CF)C1 [Compound 101, 2-(3-((1r,3r)-3-(fluoromethyl)-1-(4-methyl-4H-1,2,4-triazol-3-yl)cyclobutyl)phenyl)-6-(((1-methylcyclobutyl)amino)methyl)-4-(trifluoromethyl)isoindolin-1-one] |
| 7.2 | 1.5x | 11 | 4.7 | 0.83 | 3.9 | Cn1cnnc1[C@]1(c2cccc(N3Cc4c(cc(CNC5(C)CCC5)cc4C(F)(F)F)C3=O)c2)C[C@H](CF)C1 [Compound 102, 2-(3-((1s,3s)-3-(fluoromethyl)-1-(4-methyl-4H-1,2,4-triazol-3-yl)cyclobutyl)phenyl)-6-(((1-methylcyclobutyl)amino)methyl)-4-(trifluoromethyl)isoindolin-1-one] |
| 14 | 1.7x | 26 | 7.8 | 1.6 | 12 | COC[C@H]1C[C@@](c2cccc(N3Cc4c(cc(CNC5(C)CCC5)cc4C(F)(F)F)C3=O)c2)(c2nncn2C)C1 [Compound 103, 2-(3-((1s,3s)-3-(methoxymethyl)-1-(4-methyl-4H-1,2,4-triazol-3-yl)cyclobutyl)phenyl)-6-(((1-methylcyclobutyl)amino)methyl)-4-(trifluoromethyl)isoindolin-1-one] |
| 13 | 1.4x | 17 | 9.1 | 1.6 | 15 | COC[C@H]1C[C@](c2cccc(N3Cc4c(cc(CNC5(C)CCC5)cc4C(F)(F)F)C3=O)c2)(c2nncn2C)C1 [Compound 104, 2-(3-((1r,3r)-3-(methoxymethyl)-1-(4-methyl-4H-1,2,4-triazol-3-yl)cyclobutyl)phenyl)-6-(((1-methylcyclobutyl)amino)methyl)-4-(trifluoromethyl)isoindolin-1-one] |
